Among the data in patent US10150766B2, “P2X7 modulators” (Jansssen Pharmaceutica NV, priority 2014, dated 2018) are IC50, remaining activity and Ki values, retold here.

Where two headings read alike, the source gives them in different places.

Assay [1] addresses rat P2X7 (Rattus norvegicus (Rat), UniProt Q64663). Kind of assay: P2X7 antagonism in recombinant rat P2X7 cells (column headed P2X7 Rat IC50). In kind it is binding. As to the method:
The in vitro affinity of the compounds of the invention for the rat and human P2X7 receptor was determined using a human peripheral blood mononuclear cells (PBMCs), a human whole blood assay, a Ca^2+ flux and radioligand binding assay in recombinant human P2X7 cells and recombinant rat P2X7 cells. […] The data represented in Tables 2 may represent a value from a single determination or when the experiment was run more than once, the data represents the average from between 2-12 runs.
P2X7 Antagonism in Recombinant Human P2X7 Cells or Recombinant Rat P2X7 Cells: […]

Assay [2] deals with T1, P2X7 (Homo sapiens (Human), UniProt Q99572). Kind of assay: P2X7 antagonism in human whole blood, IL-1β release (LPS + Bz-ATP, ELISA). In kind it is cell-based. The note with it: LPS 30 ng/ml + Bz-ATP 1 mM. The protocol:
(§1) P2X7 Antagonism in Human Peripheral Blood Mononuclear Cells (PBMCs) and Human Whole Blood.
(§2) Human blood was collected using a blood donor program. PBMCs were isolated from blood using a Ficoll density gradient technique. Briefly, blood was laid on Ficoll solution and centrifuged at ROOM TEMPERATURE for 20 minutes at 2000 rpm. The buffy layer (between red blood cells and plasma) was carefully collected by aspiration, washed with PBS and centrifuged again at 1500 rpm for 15 minutes. The resulting cell pellet was washed and plated on 96 well-plates for experiments. For the Human Whole Blood experiments, 150 μl of human blood was plated on 96 well-plates. Lipopolysaccharide (LPS) (30 ng/ml) was added to each well and incubated for 1 hour. Test compounds were then added and incubated for 30 minutes. The P2X7 agonist, 2′(3′)-O-(4-benzoylbenzoyl) adenosine 5′-triphosphate (Bz-ATP) was then added at a final concentration of 0.5 mM (PBMC) or 1 mM (blood). Cells were incubated for an additional 1.5 hours. At that point, supernatant was collected and stored for IL-1β assay using manufacturer's protocol for enzyme-linked immunosorbant assay (ELISA). Data was expressed as percent control, where control is defined as the difference in IL-1β release in LPS+Bz-ATP samples and LPS only samples. Data was plotted as response (% control) versus concentration to generate IC50 values. […] Data are analyzed and graphed on Graphpad Prism 5. For analysis, each concentration point is averaged from triplicate values and the averaged values are plotted on Graphpad Prism. The IC50 for each compound is then uploaded into 3DX.
Background: An ELISA detects its analyte on a solid surface through an enzyme-linked reagent.

The target in assay [3] is T1, P2X7. Kind of assay: P2X7 antagonism in human peripheral blood mononuclear cells (PBMCs), IL-1β release (LPS + Bz-ATP, ELISA). The class given is cell-based. The note with it: P2X7, 10 μM test compound, LPS 30 ng/ml + Bz-ATP 0.5 mM, read-out: PBMC @10 μM (% control). The protocol: as §1, §2
The target of assay [4] is T1, P2X7. Nature of the assay: Radioligand binding ([3H]A-804598) to membranes of human P2X7-1321N1 cells. Conditions: human P2X7-1321N1 membranes, tracer tritiated A-804598, 1 hour at 4° C. As to the method: P2X7 Antagonism in Recombinant Human P2X7 Cells or Recombinant Rat P2X7 Cells:
human or rat P2X7-1321N1 cells were collected and frozen @ −80° C. On the day of the experiment, cell membrane preparations were made according to standard published methods. […] The compound can be prepared as described in the literature. […] The assay was terminated by filtration (GF/B filters pre-soaked with 0.3% PEI) and washed with washing buffer (Tris-HCl 50 mM). The IC50 generated in the binding assay was corrected for tracer concentration and affinity of the tracer to derive at the affinity (Ki) of the test compounds. The data are presented in Table 2 under the headings: P2X7 human Ki (μM) and P2X7 rat Ki (μM). Data are analyzed and graphed on Graphpad Prism 5. For analysis, each concentration point is averaged from triplicate values and the averaged values are plotted on Graphpad Prism.

Setting [5] is: read-out: Human Whole Blood IC50.

T1 sequence (Q99572 whole entry): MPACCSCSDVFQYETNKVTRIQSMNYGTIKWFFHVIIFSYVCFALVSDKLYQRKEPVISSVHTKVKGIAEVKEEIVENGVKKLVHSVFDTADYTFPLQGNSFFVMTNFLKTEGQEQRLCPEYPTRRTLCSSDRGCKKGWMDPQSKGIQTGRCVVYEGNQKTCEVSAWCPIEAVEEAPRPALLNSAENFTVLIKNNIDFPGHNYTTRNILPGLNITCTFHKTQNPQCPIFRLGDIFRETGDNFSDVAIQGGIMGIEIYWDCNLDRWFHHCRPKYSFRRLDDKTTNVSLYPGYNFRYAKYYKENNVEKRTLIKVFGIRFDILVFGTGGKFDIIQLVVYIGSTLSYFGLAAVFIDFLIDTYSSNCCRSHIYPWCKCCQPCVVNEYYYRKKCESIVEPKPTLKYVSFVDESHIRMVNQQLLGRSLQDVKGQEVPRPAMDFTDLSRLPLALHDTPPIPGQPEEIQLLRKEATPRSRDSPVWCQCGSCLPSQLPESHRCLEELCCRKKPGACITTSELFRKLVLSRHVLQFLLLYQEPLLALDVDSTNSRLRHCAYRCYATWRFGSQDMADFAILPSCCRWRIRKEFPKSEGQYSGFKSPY
Chain of rat P2X7 (Q64663 whole entry): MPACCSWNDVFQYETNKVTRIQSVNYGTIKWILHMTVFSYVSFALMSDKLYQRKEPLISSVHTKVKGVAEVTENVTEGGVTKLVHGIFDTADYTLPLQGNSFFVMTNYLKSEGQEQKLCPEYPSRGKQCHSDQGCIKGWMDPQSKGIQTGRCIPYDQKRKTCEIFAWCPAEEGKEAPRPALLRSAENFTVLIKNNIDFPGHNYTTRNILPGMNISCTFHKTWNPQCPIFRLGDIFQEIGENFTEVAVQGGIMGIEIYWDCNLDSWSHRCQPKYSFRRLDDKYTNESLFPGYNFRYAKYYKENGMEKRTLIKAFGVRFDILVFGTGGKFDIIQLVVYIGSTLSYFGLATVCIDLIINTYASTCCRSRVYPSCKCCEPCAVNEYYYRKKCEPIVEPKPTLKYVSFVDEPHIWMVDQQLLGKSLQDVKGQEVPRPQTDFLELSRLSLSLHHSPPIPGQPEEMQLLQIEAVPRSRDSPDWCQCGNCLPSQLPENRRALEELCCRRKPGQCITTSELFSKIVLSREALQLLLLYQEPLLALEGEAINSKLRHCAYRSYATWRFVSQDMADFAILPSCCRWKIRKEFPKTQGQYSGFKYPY

Take `Cc1nc(-c2ccn[nH]2)c2c(n1)[C@@H]1CCC[C@H](C2)N1C(=O)c1ccc(F)cc1Cl` [Example 9, (2-chloro-4-fluorophenyl)((6R,10S)-2-methyl-4-(1H-pyrazol-5-yl)-5,6,7,8,9,10-hexahydro-6,10-epiminocycloocta[d]pyrimidin-11-yl)methanone]: the values for the IC50 in assay [1] and in assay [2] (setting [5]) were greater than 10000 nM and 2.96 µM, respectively. Also, the remaining activity at 10 µM in assay [3] is 91.3%.

Take `Cc1nc(-c2ccn[nH]2)c2c(n1)[C@@H]1CCC[C@H](C2)N1C(=O)c1ccc(Cl)cc1F` [Example 12, (4-chloro-2-fluorophenyl)((6R,10S)-2-methyl-4-(1H-pyrazol-5-yl)-5,6,7,8,9,10-hexahydro-6,10-epiminocycloocta[d]pyrimidin-11-yl)methanone]: the figures for the IC50 in assay [1] and in assay [2] (setting [5]) were greater than 10000 nM and 6.12 µM, respectively. In addition, the remaining activity at 10 µM in assay [3] is 92.6%.

`Cc1nc(-c2cnn(C)c2)c2c(n1)[C@H]1CCC[C@@H](C2)N1C(=O)c1ccnc(C(F)(F)F)c1F` [Example 37, (3-fluoro-2-(trifluoromethyl)pyridin-4-yl)((6S,10R)-2-methyl-4-(1-methyl-1H-pyrazol-4-yl)-5,6,7,8,9,10-hexahydro-6,10-epiminocycloocta[d]pyrimidin-11-yl)methanone]: the IC50 is greater than 10000 nM in assay [1] and 20.9 µM in assay [2] (setting [5]). The remaining activity at 10 µM in assay [3] was 13.3%.

As for `Cc1nc(-c2ccn[nH]2)c2c(n1)[C@@H]1CCC[C@H](C2)N1C(=O)c1ccc(F)c(Cl)c1Cl` [Example 4, (2,3-dichloro-4-fluorophenyl)((6R,10S)-2-methyl-4-(1H-pyrazol-5-yl)-5,6,7,8,9,10-hexahydro-6,10-epiminocycloocta[d]pyrimidin-11-yl)methanone], the results for the IC50 in assay [1] and in assay [2] (Human Whole Blood IC50 (μM)) were 948 nM and 1.36 µM, respectively. Also, the remaining activity at 10 µM in assay [3] was 25.4%.

In the case of `Cc1nc(-c2ccn[nH]2)c2c(n1)[C@@H]1CCC[C@H](C2)N1C(=O)c1ccnc(C(F)(F)F)c1Cl` [Example 7, (3-chloro-2-(trifluoromethyl)pyridin-4-yl)((6R,10S)-2-methyl-4-(1H-pyrazol-5-yl)-5,6,7,8,9,10-hexahydro-6,10-epiminocycloocta[d]pyrimidin-11-yl)methanone], the IC50 in assay [1] is 920 nM; in assay [2] (Human Whole Blood IC50 (μM)) it was 2.35 µM. The remaining activity at 10 µM in assay [3] is 20.5%.

In the case of `Cc1nc(-c2ccn[nH]2)c2c(n1)[C@H]1CCC[C@@H](C2)N1C(=O)c1ccc(Cl)c(F)c1Cl` [Example 23, (2,4-dichloro-3-fluorophenyl)((6S,10R)-2-methyl-4-(1H-pyrazol-5-yl)-5,6,7,8,9,10-hexahydro-6,10-epiminocycloocta[d]pyrimidin-11-yl)methanone], in assay [2] (Human Whole Blood IC50 (μM)), the IC50 turned out to be 0.018 µM. Also, in assay [3], the remaining activity at 10 µM is -24.7%. In addition, in assay [4], the Ki stood at 31.6 nM.

Regarding `Cc1nc(-c2ccn[nH]2)c2c(n1)[C@@H]1CCC[C@H](C2)N1C(=O)c1cccc(C(F)(F)F)c1C` [Example 6, (2-methyl-3-(trifluoromethyl)phenyl)((6R,10S)-2-methyl-4-(1H-pyrazol-5-yl)-5,6,7,8,9,10-hexahydro-6,10-epiminocycloocta[d]pyrimidin-11-yl)methanone], the IC50 in assay [1] turned out to be 970 nM; in assay [2] (Human Whole Blood IC50 (μM)) it was 1.13 µM. In assay [3], the remaining activity at 10 µM stood at 18.1%.

For `Cc1nc(-c2ccn[nH]2)c2c(n1)[C@H]1CCC[C@@H](C2)N1C(=O)c1ccc(Cl)cc1Cl` [Example 20, (2,4-dichlorophenyl)((6S,10R)-2-methyl-4-(1H-pyrazol-5-yl)-5,6,7,8,9,10-hexahydro-6,10-epiminocycloocta[d]pyrimidin-11-yl)methanone], the IC50 in assay [2] (Human Whole Blood IC50 (μM)) was 0.221 µM. The remaining activity at 10 µM in assay [3] is -9.9%. In addition, the affinity in assay [4] corresponds to a Ki of 120 nM.

`Cc1nc(-c2ccc(F)cc2)c2c(n1)[C@@H]1CCC[C@H](C2)N1C(=O)c1cccc(C(F)(F)F)c1Cl` [Example 13, (2-chloro-3-(trifluoromethyl)phenyl)((6R,10S)-4-(4-fluorophenyl)-2-methyl-5,6,7,8,9,10-hexahydro-6,10-epiminocycloocta[d]pyrimidin-11-yl)methanone]: the values for the IC50 in assay [1] and in assay [2] (Human Whole Blood IC50 (μM)) were 88.9 nM and 5.08 µM, respectively. Moreover, the remaining activity at 10 µM in assay [3] was 22.2%.

With `Cc1nc(-c2cnn(C)c2)c2c(n1)[C@H]1CCC[C@@H](C2)N1C(=O)c1ccc(F)c(Cl)c1Cl` [Example 33, (2,3-dichloro-4-fluorophenyl)((6S,10R)-2-methyl-4-(1-methyl-1H-pyrazol-4-yl)-5,6,7,8,9,10-hexahydro-6,10-epiminocycloocta[d]pyrimidin-11-yl)methanone], the IC50 in assay [1] is greater than 10000 nM; in assay [2] (setting [5]), 1.34 µM. The remaining activity at 10 µM in assay [3] was determined as 1.2%.

In the case of `Cc1nc(-c2cnn(C)c2)c2c(n1)[C@H]1CCC[C@@H](C2)N1C(=O)c1cccc(C(F)(F)F)c1F` [Example 34, (2-fluoro-3-(trifluoromethyl)phenyl)((6S,10R)-2-methyl-4-(1-methyl-1H-pyrazol-4-yl)-5,6,7,8,9,10-hexahydro-6,10-epiminocycloocta[d]pyrimidin-11-yl)methanone], the IC50 in assay [1] was greater than 10000 nM; in assay [2] (Human Whole Blood IC50 (μM)) it was 8.59 µM. In addition, in assay [3], the remaining activity at 10 µM is 3.3%.

In the case of `Cc1nc(-c2cnn(C)c2)c2c(n1)[C@H]1CCC[C@@H](C2)N1C(=O)c1ccnc(C(F)(F)F)c1Cl` [Example 32, (3-chloro-2-(trifluoromethyl)pyridin-4-yl)((6S,10R)-2-methyl-4-(1-methyl-1H-pyrazol-4-yl)-5,6,7,8,9,10-hexahydro-6,10-epiminocycloocta[d]pyrimidin-11-yl)methanone], the IC50 was greater than 10000 nM in assay [1] and 1.58 µM in assay [2] (Human Whole Blood IC50 (μM)). Besides, the remaining activity at 10 µM in assay [3] was determined as 4.8%.

Regarding `Cc1nc(-c2ccnn2C)c2c(n1)[C@H]1CCC[C@@H](C2)N1C(=O)c1ccnc(C(F)(F)F)c1Cl` [Example 60, (3-chloro-2-(trifluoromethyl)pyridin-4-yl)((6S,10R)-2-methyl-4-(1-methyl-1H-pyrazol-5-yl)-5,6,7,8,9,10-hexahydro-6,10-epiminocycloocta[d]pyrimidin-11-yl)methanone], the IC50 is 798 nM in assay [1] and 1.98 µM in assay [2] (Human Whole Blood IC50 (μM)). Also, the remaining activity at 10 µM in assay [3] turned out to be 21.4%.

For `Cc1nc(-c2cnn(C)c2)c2c(n1)[C@H]1CCC[C@@H](C2)N1C(=O)c1cccc(Cl)c1Cl` [Example 31, (2,3-dichlorophenyl)((6S,10R)-2-methyl-4-(1-methyl-1H-pyrazol-4-yl)-5,6,7,8,9,10-hexahydro-6,10-epiminocycloocta[d]pyrimidin-11-yl)methanone], the IC50 is greater than 10000 nM in assay [1] and 2.67 µM in assay [2] (Human Whole Blood IC50 (μM)). In assay [3], the remaining activity at 10 µM was -0.9%.

With `Cc1nc(-c2cnn(C)c2)c2c(n1)[C@H]1CCC[C@@H](C2)N1C(=O)c1cccc(C(F)(F)F)c1C` [Example 39, (2-methyl-3-(trifluoromethyl)phenyl)((6S,10R)-2-methyl-4-(1-methyl-1H-pyrazol-4-yl)-5,6,7,8,9,10-hexahydro-6,10-epiminocycloocta[d]pyrimidin-11-yl)methanone], the IC50 in assay [1] was greater than 10000 nM; in assay [2] (Human Whole Blood IC50 (μM)), 1.09 µM. The remaining activity at 10 µM in assay [3] stood at 1%.

In the case of `Cc1nc(-c2ccc(F)cc2)c2c(n1)[C@@H]1CCC[C@H](C2)N1C(=O)c1ccc(F)cc1Cl` [Example 16, (2-chloro-4-fluorophenyl)((6R,10S)-4-(4-fluorophenyl)-2-methyl-5,6,7,8,9,10-hexahydro-6,10-epiminocycloocta[d]pyrimidin-11-yl)methanone], the values for the IC50 in assay [1] and in assay [2] (Human Whole Blood IC50 (μM)) were greater than 10000 nM and 7.38 µM, respectively. Also, the remaining activity at 10 µM in assay [3] worked out at 84.8%.

By IC50 is commonly meant the concentration needed to halve the response being measured. As a reminder, the Ki is the equilibrium dissociation constant of an inhibitor or competing ligand from its target. Low values mean tighter binding, high ones weaker binding.
